Test results as given in patent publication US10065945B2, “Isoquinoline derivatives as MGAT2 inhibitors” (Merck Sharp & Dohme Corp., priority 2014, dated 2018).
Structures can show the parent of a compound that is named as a salt.

Target: MGAT2 Human (Homo sapiens (Human), UniProt Q3SYC2)
Test: MGAT2 Human IC50
Type: biochemical

MGAT2 Human, sequence (Q3SYC2 whole entry): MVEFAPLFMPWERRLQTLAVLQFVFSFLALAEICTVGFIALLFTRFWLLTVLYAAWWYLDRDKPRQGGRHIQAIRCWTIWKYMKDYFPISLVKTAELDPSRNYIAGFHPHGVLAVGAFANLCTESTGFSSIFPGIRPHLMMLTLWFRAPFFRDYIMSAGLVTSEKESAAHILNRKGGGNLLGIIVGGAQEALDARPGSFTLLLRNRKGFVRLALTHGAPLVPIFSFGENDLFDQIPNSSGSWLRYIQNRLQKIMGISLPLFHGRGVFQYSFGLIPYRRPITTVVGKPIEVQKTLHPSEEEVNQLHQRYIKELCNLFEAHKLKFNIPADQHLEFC

Row | Compound | IC50 [nM]
1 | COCCOc1ccc([C@@H](C)N2CCc3ccc(S(=O)(=O)Nc4cc(C(C)(C)C)on4)cc3C2)cn1 [Example 31, 7-(N-(5-(tert-butyl)isoxazol-3-yl)sulfamoyl)-2-((R)-1-(6-(2-methoxyethoxy)pyridin-3-yl)ethyl)-1,2,3,4-tetrahydroisoquinolin-2-ium 2,2,2-trifluoroacetate] | 17.2
2 | C[C@H](c1ccc(OCC(F)(F)F)nc1)N1CCc2ccc(S(=O)(=O)Nc3noc(C(C)(C)C)c3CO)cc2C1 [Example 32, 7-(N-(5-(tert-butyl)-4-(hydroxymethyl)isoxazol-3-yl)sulfamoyl)-2-((R)-1-(6-(2,2,2-trifluoroethoxy)pyridin-3-yl)ethyl)-1,2,3,4-tetrahydroisoquinolin-2-ium 2,2,2-trifluoroacetate] | 19.8
3 | CCOc1cnc([C@@H](C)N2CCc3ccc(S(=O)(=O)Nc4noc(-c5ccccc5)n4)cc3C2)cn1 [Example 37] | 11.5
4 | CCc1ccc(CN2CCc3ccc(S(=O)(=O)Nc4noc(C(C)(C)C)c4CC)cc3C2)cn1 [Example 40, N-(5-(tert-butyl)-4-ethylisoxazol-3-yl)-2-((6-ethylpyridin-3-yl)methyl)-1,2,3,4-tetrahydroisoquinoline-7-sulfonamide] | 15
5 | CC(C)(C)c1onc(NS(=O)(=O)c2cnc3c(c2)CN(Cc2cc(F)cc(F)c2)CC3)c1Br [Example 44, N-(4-bromo-5-(tert-butyl)isoxazol-3-yl)-6-(3,5-difluorobenzyl)-5,6,7,8-tetrahydro-1,6-naphthyridine-3-sulfonamide Trifluoroacetate] | 118
6 | CCc1cnc(NS(=O)(=O)c2ccc3c(c2)CN([C@H](C)c2ccc(OCC(F)F)nc2)CC3)cn1 [Example 46, 2-((R)-1-(6-(2,2-difluoroethoxy)pyridin-3-yl)ethyl)-7-(N-(5-ethylpyrazin-2-yl)sulfamoyl)-1,2,3,4-tetrahydroisoquinolin-2-ium 2,2,2-trifluoroacetate] | 12.7
7 | CC(C)Nc1cnc(NS(=O)(=O)c2ccc3c(c2)CN([C@H](C)c2ccc(OCC(F)(F)F)nc2)CC3)cn1 [Example 47, 7-(N-(5-(isopropylamino)pyrazin-2-yl)sulfamoyl)-2-((R)-1-(6-(2,2,2-trifluoroethoxy)pyridin-3-yl)ethyl)-1,2,3,4-tetrahydroisoquinolin-2-ium 2,2,2-trifluoroacetate] | 13.9
8 | COCCOc1ccc([C@@H](C)N2CCc3ccc(S(=O)(=O)Nc4cnc(C5CC5)cn4)cc3C2)cn1 [Example 48, 7-(N-(5-cyclopropylpyrazin-2-yl)sulfamoyl)-2-((R)-1-(6-(2-methoxyethoxy)pyridin-3-yl)ethyl)-1,2,3,4-tetrahydroisoquinolin-2-ium 2,2,2-trifluoroacetate] | 21.3
9 | CCOC(=O)c1noc(NS(=O)(=O)c2ccc3c(c2)CN([C@H](C)c2cc(F)cc(F)c2)CC3)n1 [Example 51, (R)-ethyl 5-(2-(1-(3,5-difluorophenyl)ethyl)-1,2,3,4-tetrahydroisoquinoline-7-sulfonamido)-1,2,4-oxadiazole-3-carboxylate] | 14
10 | C[C@H](c1cc(F)cc(F)c1)N1CCc2ccc(S(=O)(=O)Nc3nc(C(N)=O)no3)cc2C1 [Example 52, (R)-5-(2-(1-(3,5-difluorophenyl)ethyl)-1,2,3,4-tetrahydroisoquinoline-7-sulfonamido)-1,2,4-oxadiazole-3-carboxamide] | 31
11 | C[C@H](c1cc(F)cc(F)c1)N1CCc2ccc(S(=O)(=O)Nc3nc(C(=O)NCC(F)(F)F)no3)cc2C1 [Example 54] | 16

Compounds with a lower IC50, results first:

Row | IC50 [nM] | Compound
12 | 3.7 | CCOC(=O)c1c(NS(=O)(=O)c2ccc3c(c2)CN([C@H](C)c2cc(F)cc(F)c2)CC3)noc1C(C)(C)C [Example 33, (R)-ethyl 5-(tert-butyl)-3-(2-(1-(3,5-difluorophenyl)ethyl)-1,2,3,4-tetrahydroisoquinoline-7-sulfonamido)isoxazole-4-carboxylate]
13 | 6.2 | CNC(=O)c1c(NS(=O)(=O)c2ccc3c(c2)CN([C@H](C)c2cc(F)cc(F)c2)CC3)noc1C(C)(C)C [Example 34, (R)-5-(tert-butyl)-3-(2-(1-(3,5-difluorophenyl)ethyl)-1,2,3,4-tetrahydroisoquinoline-7-sulfonamido)-N-methylisoxazole-4-carboxamide]
14 | 8.3 | CCOc1cnc([C@@H](C)N2CCc3ccc(S(=O)(=O)Nc4noc(C(C)(C)C)c4Cl)cc3C2)cn1 [Example 35, (R)—N-(5-(tert-Butyl)-4-chloroisoxazol-3-yl)-2-(1-(5-ethoxypyrazin-2-yl)ethyl)-1,2,3,4-tetrahydroisoquinoline-7-sulfonamide]
15 | 3.5 | CCOc1cnc([C@@H](C)N2CCc3ccc(S(=O)(=O)Nc4noc(C(C)(C)C)c4C)cc3C2)cn1 [Example 36, (R)—N-(5-(tert-butyl)-4-methylisoxazol-3-yl)-2-(1-(5-ethoxypyrazin-2-yl)ethyl)-1,2,3,4-tetrahydroisoquinoline-7-sulfonamide]
16 | 6 | CCCc1cnc(NS(=O)(=O)c2ccc3c(c2)CN([C@H](C)c2cc(F)cc(F)c2)CC3)cn1 [Example 38, (R)-2-(1-(3,5-difluorophenyl)ethyl)-N-(5-propylpyrazin-2-yl)-1,2,3,4-tetrahydroisoquinoline-7-sulfonamide]
17 | 11 | CCCc1c(NS(=O)(=O)c2ccc3c(c2)CN(Cc2ccc(CC)nc2)CC3)noc1C(C)(C)C [Example 39, N-(5-(tert-butyl)-4-propylisoxazol-3-yl)-2-((6-ethylpyridin-3-yl)methyl)-1,2,3,4-tetrahydroisoquinoline-7-sulfonamide]
18 | 6.8 | CCCc1ccc(CN2CCc3ccc(S(=O)(=O)Nc4noc(C(C)(C)C)c4Br)cc3C2)cn1 [Example 41, N-(4-bromo-5-(tert-butyl)isoxazol-3-yl)-2-((6-propylpyridin-3-yl)methyl)-1,2,3,4-tetrahydroisoquinoline-7-sulfonamide]
19 | 8.2 | CCc1ccc([C@@H](C)N2CCc3ccc(S(=O)(=O)Nc4noc(C(C)(C)C)c4C)cc3C2)cn1 [Example 42, (R)—N-(5-(tert-butyl)-4-methylisoxazol-3-yl)-2-(1-(6-ethylpyridin-3-yl)ethyl)-1,2,3,4-tetrahydroisoquinoline-7-sulfonamide]
20 | 1.6 | CCCc1ccc([C@@H](C)N2CCc3ccc(S(=O)(=O)Nc4noc(C(C)(C)C)c4Br)cc3C2)cn1 [Example 43, (R)—N-(4-bromo-5-(tert-butyl)isoxazol-3-yl)-2-(1-(6-propylpyridin-3-yl)ethyl)-1,2,3,4-tetrahydroisoquinoline-7-sulfonamide]
21 | 7.3 | CCCc1cnc(NS(=O)(=O)c2ccc3c(c2)CN([C@H](C)c2ccc(OCC(F)(F)F)nc2)CC3)cn1 [Example 45, 7-(N-(5-propylpyrazin-2-yl)sulfamoyl)-2-((R)-1-(6-(2,2,2-trifluoroethoxy)pyridin-3-yl)ethyl)-1,2,3,4-tetrahydroisoquinolin-2-ium 2,2,2-trifluoroacetate]
22 | 8.7 | COc1ccc(NS(=O)(=O)c2ccc3c(c2)CN([C@H](C)c2ccc(OCC(F)(F)F)nc2)CC3)nn1 [Example 49, (R)—N-(6-methoxypyridazin-3-yl)-2-(1-(6-(2,2,2-trifluoroethoxy)pyridin-3-yl)ethyl)-1,2,3,4-tetrahydroisoquinoline-7-sulfonamide]
23 | 3.8 | C[C@H](c1ccc(OCC(F)(F)F)nc1)N1CCc2ccc(S(=O)(=O)Nc3ccc(C(C)(C)C)nn3)cc2C1 [Example 50, 7-(N-(6-(tert-butyl)pyridazin-3-yl)sulfamoyl)-2-((R)-1-(6-(2,2,2-trifluoroethoxy)pyridin-3-yl)ethyl)-1,2,3,4-tetrahydroisoquinolin-2-ium 2,2,2-trifluoroacetate]
24 | 7.1 | CCNC(=O)c1noc(NS(=O)(=O)c2ccc3c(c2)CN([C@H](C)c2cc(F)cc(F)c2)CC3)n1 [Example 53]
25 | 3.7 | C[C@H](c1cc(F)cc(F)c1)N1CCc2ccc(S(=O)(=O)Nc3nc(C(=O)N4CCC4)no3)cc2C1 [Example 55]
26 | 5.7 | C[C@H](c1cc(F)cc(F)c1)N1CCc2ccc(S(=O)(=O)Nc3nc(C(=O)N(C)C)no3)cc2C1 [Example 56]
